Laboratory results published in ChEMBL document CHEMBL3994622, “Design and synthesis of new RAF kinase-inhibiting antiproliferative quinoline derivatives. Part 2: Diarylurea derivatives” (Eur J Med Chem, 2017).

Columns and labels:
Format in all cases: functional
[1] = system: K562; test: Growth inhibition of human K562 cells assessed as cell growth at 3 uM incubated for 48 hrs by sulforhodamine B assay relative to control; settings: K562, 48 h, read-out: Activity
[2] = system: HT-29; test: Growth inhibition of human HT-29 cells assessed as cell growth at 0.003 uM incubated for 48 hrs by sulforhodamine B assay relative to control; settings: HT-29, 48 h, read-out: Activity
[3] = system: SK-MEL-2; test: Growth inhibition of human SK-MEL-2 cells assessed as cell growth at 30 uM incubated for 48 hrs by sulforhodamine B assay relative to control; settings: SK-MEL-2, 48 h, read-out: Activity
[4] = system: UACC-257; test: Growth inhibition of human UACC257 cells assessed as cell growth at 30 uM incubated for 48 hrs by sulforhodamine B assay relative to control; settings: UACC-257, 48 h, read-out: Activity
[5] = system: RPMI-8226; test: Growth inhibition of human RPMI8226 cells assessed as cell growth at 0.3 uM incubated for 48 hrs by sulforhodamine B assay relative to control; settings: RPMI-8226, 48 h, read-out: Activity
[6] = system: SR; test: Growth inhibition of human SR cells assessed as cell growth at 0.3 uM incubated for 48 hrs by sulforhodamine B assay relative to control; settings: read-out: Activity
[7] = system: K562; test: Growth inhibition of human K562 cells assessed as cell growth at 0.03 uM incubated for 48 hrs by sulforhodamine B assay relative to control; settings: K562, 48 h, read-out: Activity
[8] = system: SK-MEL-28; test: Growth inhibition of human SK-MEL-28 cells assessed as cell growth at 0.003 uM incubated for 48 hrs by sulforhodamine B assay relative to control; settings: SK-MEL-28, 48 h, read-out: Activity
[9] = system: UACC-62; test: Growth inhibition of human UACC62 cells assessed as cell growth at 0.3 uM incubated for 48 hrs by sulforhodamine B assay relative to control; settings: UACC-62, 48 h, read-out: Activity
[10] = system: NCI-H226; test: Growth inhibition of human NCI-H226 cells assessed as cell growth at 0.003 uM incubated for 48 hrs by sulforhodamine B assay relative to control; settings: NCI-H226, 48 h, read-out: Activity
[11] = system: MCF7; test: Growth inhibition of human MCF7 cells assessed as cell growth at 30 uM incubated for 48 hrs by sulforhodamine B assay relative to control; settings: MCF7, 48 h, read-out: Activity
[12] = system: KM12; test: Growth inhibition of human KM12 cells assessed as cell growth at 0.3 uM incubated for 48 hrs by sulforhodamine B assay relative to control; settings: KM12, 48 h, read-out: Activity
[13] = system: HL-60(TB); test: Growth inhibition of human HL-60(TB) cells assessed as cell growth at 3 uM incubated for 48 hrs by sulforhodamine B assay relative to control; settings: HL-60, 48 h, read-out: Activity
[14] = system: HCT-116; test: Growth inhibition of human HCT116 cells assessed as cell growth at 0.03 uM incubated for 48 hrs by sulforhodamine B assay relative to control; settings: HCT-116, 48 h, read-out: Activity
[15] = system: NCI-H522; test: Growth inhibition of human NCI-H522 cells assessed as cell growth at 30 uM incubated for 48 hrs by sulforhodamine B assay relative to control; settings: NCI-H522, 48 h, read-out: Activity
[16] = system: HL-60(TB); test: Growth inhibition of human HL-60(TB) cells assessed as cell growth at 30 uM incubated for 48 hrs by sulforhodamine B assay relative to control; settings: HL-60, 48 h, read-out: Activity
[17] = system: T47D; test: Growth inhibition of human T47D cells assessed as cell growth at 0.03 uM incubated for 48 hrs by sulforhodamine B assay relative to control; settings: read-out: Activity
[18] = system: NCI-H226; test: Growth inhibition of human NCI-H226 cells assessed as cell growth at 0.3 uM incubated for 48 hrs by sulforhodamine B assay relative to control; settings: NCI-H226, 48 h, read-out: Activity
[19] = system: DU-145; test: Growth inhibition of human DU145 cells assessed as cell growth at 0.003 uM incubated for 48 hrs by sulforhodamine B assay relative to control; settings: DU-145, 48 h, read-out: Activity
[20] = system: SNB-75; test: Growth inhibition of human SNB75 cells assessed as cell growth at 10 uM incubated for 48 hrs by sulforhodamine B assay relative to control; settings: SNB-75, 48 h, read-out: Activity
[21] = system: SF-268; test: Growth inhibition of human SF268 cells assessed as cell growth at 0.1 uM incubated for 48 hrs by sulforhodamine B assay relative to control; settings: SF-268, 48 h, read-out: Activity
[22] = system: OVCAR-4; test: Growth inhibition of human OVCAR4 cells assessed as cell growth at 1 uM incubated for 48 hrs by sulforhodamine B assay relative to control; settings: OVCAR-4, 48 h, read-out: Activity
[23] = system: UACC-62; test: Growth inhibition of human UACC62 cells assessed as cell growth at 0.1 uM incubated for 48 hrs by sulforhodamine B assay relative to control; settings: UACC-62, 48 h, read-out: Activity
[24] = system: HCT-15; test: Growth inhibition of human HCT15 cells assessed as cell growth at 10 uM incubated for 48 hrs by sulforhodamine B assay relative to control; settings: HCT-15, 48 h, read-out: Activity
[25] = system: SK-MEL-28; test: Growth inhibition of human SK-MEL-28 cells assessed as cell growth at 1 uM incubated for 48 hrs by sulforhodamine B assay relative to control; settings: SK-MEL-28, 48 h, read-out: Activity
[26] = system: M14; test: Growth inhibition of human M14 cells assessed as cell growth at 100 uM incubated for 48 hrs by sulforhodamine B assay relative to control; settings: M14, 48 h, read-out: Activity
[27] = system: Malme-3M; test: Growth inhibition of human MALME-3M cells assessed as cell growth at 10 uM incubated for 48 hrs by sulforhodamine B assay relative to control; settings: read-out: Activity
[28] = system: Malme-3M; test: Growth inhibition of human MALME-3M cells assessed as cell growth at 0.1 uM incubated for 48 hrs by sulforhodamine B assay relative to control; settings: read-out: Activity
[29] = system: CCRF-CEM; test: Growth inhibition of human CCRF-CEM cells assessed as cell growth at 1 uM incubated for 48 hrs by sulforhodamine B assay relative to control; settings: read-out: Activity
[30] = system: MDA-MB-435; test: Growth inhibition of human MDA-MB-435 cells assessed as cell growth at 10 uM incubated for 48 hrs by sulforhodamine B assay relative to control; settings: MDA-MB-435, 48 h, read-out: Activity
[31] = system: HOP-92; test: Growth inhibition of human HOP92 cells assessed as cell growth at 0.01 uM incubated for 48 hrs by sulforhodamine B assay relative to control; settings: HOP-92, 48 h, read-out: Activity
[32] = system: SK-MEL-2; test: Growth inhibition of human SK-MEL-2 cells assessed as cell growth at 0.01 uM incubated for 48 hrs by sulforhodamine B assay relative to control; settings: SK-MEL-2, 48 h, read-out: Activity
[33] = system: HT-29; test: Growth inhibition of human HT-29 cells assessed as cell growth at 1 uM incubated for 48 hrs by sulforhodamine B assay relative to control; settings: HT-29, 48 h, read-out: Activity
[34] = system: MDA-MB-468; test: Growth inhibition of human MDA-MB-468 cells incubated for 48 hrs by sulforhodamine B assay; settings: MDA-MB-468, 48 h

COc1cc2cc(Oc3ccc(NC(=O)Nc4ccc(Cl)c(C(F)(F)F)c4)cc3)c(C)nc2cc1OC
growth at 3 µM [1]: 12%
growth at 0.003 µM [2]: 97%
growth at 30 µM [3]: -69%
growth at 30 µM [4]: -60%
growth at 0.3 µM [5]: 85%
growth at 0.3 µM [6]: 91%
growth at 0.03 µM [7]: 102%
growth at 0.003 µM [8]: 99%
growth at 0.3 µM [9]: 81%
growth at 0.003 µM [10]: 96%
growth at 30 µM [11]: -79%
growth at 0.3 µM [12]: 96%
growth at 3 µM [13]: -2%
growth at 0.03 µM [14]: 91%
growth at 30 µM [15]: -81%
growth at 30 µM [16]: -22%
growth at 0.03 µM [17]: 94%
growth at 0.3 µM [18]: 106%
growth at 0.003 µM [19]: 100%

COc1cc2cc(Oc3ccc(NC(=O)Nc4ccc(Cl)c(Cl)c4)cc3)c(C)nc2cc1OC
growth at 10 µM [20]: -7%
growth at 0.1 µM [21]: 109%
growth at 1 µM [22]: 93%
growth at 0.1 µM [23]: 89%
growth at 10 µM [24]: 19%
growth at 1 µM [25]: 97%
growth at 100 µM [26]: -94%
growth at 10 µM [27]: -14%
growth at 0.1 µM [28]: 105%
growth at 1 µM [29]: 78%
growth at 10 µM [30]: 13%
growth at 0.01 µM [31]: 95%
growth at 0.01 µM [32]: 116%
growth at 1 µM [33]: 108%

COc1cc2cc(Oc3ccc(NC(=O)Nc4cc(C(F)(F)F)cc(C(F)(F)F)c4)cc3)c(C)nc2cc1OC
growth at 10 µM [20]: -32%
growth at 0.1 µM [21]: 92%
growth at 1 µM [22]: 58%
growth at 0.1 µM [23]: 96%
growth at 10 µM [24]: -91%
growth at 1 µM [25]: 59%
growth at 100 µM [26]: -66%
growth at 10 µM [27]: -46%
growth at 0.1 µM [28]: 87%
growth at 1 µM [29]: 39%
growth at 10 µM [30]: -49%
growth at 0.01 µM [31]: 93%
growth at 0.01 µM [32]: 106%
GI50 [34]: 1.08 µM
TGI [34]: 3.96 µM
growth at 1 µM [33]: 75%

Cc1nc2cc(O)c(O)cc2cc1Oc1ccc(NC(=O)Nc2ccc(Cl)c(Cl)c2)cc1
growth at 3 µM [1]: 76%
growth at 0.003 µM [2]: 103%
growth at 30 µM [3]: -25%
growth at 30 µM [4]: -20%
growth at 0.3 µM [5]: 97%
growth at 0.3 µM [6]: 98%
growth at 0.03 µM [7]: 110%
growth at 0.003 µM [8]: 90%
growth at 0.3 µM [9]: 100%
growth at 0.003 µM [10]: 101%
growth at 30 µM [11]: 1%
growth at 0.3 µM [12]: 104%
growth at 3 µM [13]: 106%
growth at 0.03 µM [14]: 89%
GI50 [34]: 6.99 µM
TGI [34]: 17.4 µM
CC50 ([34]; read-out: LC50 (the source's name)): > 32.5 µM
growth at 30 µM [15]: -46%
growth at 30 µM [16]: -20%
growth at 0.03 µM [17]: 102%
growth at 0.3 µM [18]: 97%
growth at 0.003 µM [19]: 105%
